{"source": "paper PMC5218480", "about": "(PLoS ONE, 2017)", "test_system": "MV-4-11 cells", "test": "Gene expression microarray analysis (Affymetrix PrimeView) and GSEA", "assay_type": "cell-based, human", "parameters": "RFU PODN (11730768_x_at) / Fold change /veh PODN (11730768_x_at) / RFU LINC00158 (11744669_a_at) / Fold change /veh LINC00158 (11744669_a_at) / RFU DUSP10 (11751237_a_at) / Fold change /veh DUSP10 (11751237_a_at) / RFU ID3 (11757404_x_at) / Fold change /veh ID3 (11757404_x_at) / RFU PLEKHG5 (11737974_s_at) / Fold change /veh PLEKHG5 (11737974_s_at) / RFU LRRC4B (11730491_at) / Fold change /veh LRRC4B (11730491_at) / RFU GIMAP4 (11747438_a_at) / Fold change /veh GIMAP4 (11747438_a_at) / RFU KRT8 (11758183_x_at) / Fold change /veh KRT8 (11758183_x_at) / RFU CNN1 (11734310_a_at) / Fold change /veh CNN1 (11734310_a_at) / RFU VPS37D (11726825_at) / Fold change /veh VPS37D (11726825_at) / RFU C10orf10 (11716522_x_at) / Fold change /veh C10orf10 (11716522_x_at) / RFU KIR2DL2 /// KIR2DL4 /// KIR2DL5A /// KIR2DL5B /// KIR2DS1 /// KIR2DS2 /// KIR2DS3 /// KIR2DS4 /// KIR3DL3 /// KIR3DL3 /// KIR3DS1 (11738374_at) / Fold change /veh KIR2DL2 /// KIR2DL4 /// KIR2DL5A /// KIR2DL5B /// KIR2DS1 /// KIR2DS2 /// KIR2DS3 /// KIR2DS4 /// KIR3DL3 /// KIR3DL3 /// KIR3DS1 (11738374_at) / RFU C1QL1 (11718748_at) / Fold change /veh C1QL1 (11718748_at) / RFU TMPRSS4 (11747572_a_at) / Fold change /veh TMPRSS4 (11747572_a_at) / RFU HAMP (11756126_x_at) / Fold change /veh HAMP (11756126_x_at) / RFU RNFT2 (11725882_a_at) / Fold change /veh RNFT2 (11725882_a_at) / RFU NR4A2 (11747474_a_at) / Fold change /veh NR4A2 (11747474_a_at) / RFU ABCC12 (11746883_a_at) / Fold change /veh ABCC12 (11746883_a_at) / RFU TMEM136 (11760407_x_at) / Fold change /veh TMEM136 (11760407_x_at) / RFU CLDN22 /// WWC2 (11732394_at) / Fold change /veh CLDN22 /// WWC2 (11732394_at) / RFU HLA-DPB1 (11760878_x_at) / Fold change /veh HLA-DPB1 (11760878_x_at) / RFU SPINT1 (11716480_a_at) / Fold change /veh SPINT1 (11716480_a_at) / RFU GAP43 (11754022_s_at) / Fold change /veh GAP43 (11754022_s_at) / RFU A4GNT (11735810_at) / Fold change /veh A4GNT (11735810_at) / RFU PRB3 (11715151_x_at) / Fold change /veh PRB3 (11715151_x_at) / RFU TUBB4B (11761932_at) / Fold change /veh TUBB4B (11761932_at) / RFU CAPN14 (11732068_a_at) / Fold change /veh CAPN14 (11732068_a_at) / RFU TMCC2 (11721928_a_at) / Fold change /veh TMCC2 (11721928_a_at) / RFU IRGQ (11745062_a_at) / Fold change /veh IRGQ (11745062_a_at) / RFU FAM174B (11720279_a_at) / Fold change /veh FAM174B (11720279_a_at) / RFU TMPRSS4 (11748680_a_at) / Fold change /veh TMPRSS4 (11748680_a_at) / RFU FAM212B (11763350_a_at) / Fold change /veh FAM212B (11763350_a_at) / RFU PLEKHG5 (11743358_a_at) / Fold change /veh PLEKHG5 (11743358_a_at) / RFU ZSCAN30 (11745921_a_at) / Fold change /veh ZSCAN30 (11745921_a_at) / RFU CMKLR1 (11741424_a_at) / Fold change /veh CMKLR1 (11741424_a_at) / RFU LOC101060620 /// MAPK8IP1 (11723275_at) / Fold change /veh LOC101060620 /// MAPK8IP1 (11723275_at) / RFU SPTSSB (11747773_x_at) / Fold change /veh SPTSSB (11747773_x_at) / RFU PRSS12 (11739890_at) / Fold change /veh PRSS12 (11739890_at) / RFU BIN1 (11741810_x_at) / Fold change /veh BIN1 (11741810_x_at) / RFU WNT11 (11732464_a_at) / Fold change /veh WNT11 (11732464_a_at) / RFU C10orf10 (11716521_a_at) / Fold change /veh C10orf10 (11716521_a_at) / RFU C5orf56 (11738089_at) / Fold change /veh C5orf56 (11738089_at) / RFU CYB561 (11721691_x_at) / Fold change /veh CYB561 (11721691_x_at) / RFU ANKRD19P (11752326_a_at) / Fold change /veh ANKRD19P (11752326_a_at) / RFU OR2T12 /// OR2T33 /// OR2T8 (11738714_s_at) / Fold change /veh OR2T12 /// OR2T33 /// OR2T8 (11738714_s_at) / RFU VCAN (11748164_a_at) / Fold change /veh VCAN (11748164_a_at) / RFU JSRP1 (11732532_at) / Fold change /veh JSRP1 (11732532_at) / RFU KRTAP10-11 (11738290_x_at) / Fold change /veh KRTAP10-11 (11738290_x_at) / RFU MYO3A (11730013_a_at) / Fold change /veh MYO3A (11730013_a_at) / RFU EBF3 (11725865_a_at) / Fold change /veh EBF3 (11725865_a_at) / RFU CAMK2N1 (11719241_x_at) / Fold change /veh CAMK2N1 (11719241_x_at) / RFU C5orf56 (11738088_a_at) / Fold change /veh C5orf56 (11738088_a_at) / RFU OLFML3 (11715873_a_at) / Fold change /veh OLFML3 (11715873_a_at) / RFU LOC100653217 /// NTM (11731650_a_at) / Fold change /veh LOC100653217 /// NTM (11731650_a_at) / RFU MAPK11 (11762145_a_at) / Fold change /veh MAPK11 (11762145_a_at) / RFU FIZ1 (11724087_x_at) / Fold change /veh FIZ1 (11724087_x_at) / RFU OASL (11726364_x_at) / Fold change /veh OASL (11726364_x_at) / RFU SOX15 (11748057_x_at) / Fold change /veh SOX15 (11748057_x_at) / RFU CD79A (11719716_a_at) / Fold change /veh CD79A (11719716_a_at) / RFU HIST1H1D (11736915_at) / Fold change /veh HIST1H1D (11736915_at) / RFU CASKIN2 (11723855_a_at) / Fold change /veh CASKIN2 (11723855_a_at) / RFU LOC730098 (11760151_x_at) / Fold change /veh LOC730098 (11760151_x_at) / RFU OR4N2 (11742367_at) / Fold change /veh OR4N2 (11742367_at) / RFU PRRT2 (11749266_a_at) / Fold change /veh PRRT2 (11749266_a_at) / RFU SNX32 (11753110_a_at) / Fold change /veh SNX32 (11753110_a_at) / RFU CDHR5 (11726645_a_at) / Fold change /veh CDHR5 (11726645_a_at) / RFU RCAN1 (11760418_a_at) / Fold change /veh RCAN1 (11760418_a_at) / RFU FAM167A (11723789_a_at) / Fold change /veh FAM167A (11723789_a_at) / RFU FAM26E (11764081_at) / Fold change /veh FAM26E (11764081_at) / RFU ISYNA1 (11749810_s_at) / Fold change /veh ISYNA1 (11749810_s_at) / RFU ACY1 (11761880_at) / Fold change /veh ACY1 (11761880_at) / RFU 11764098_at / Fold change /veh 11764098_at / RFU SAMD14 (11745864_x_at) / Fold change /veh SAMD14 (11745864_x_at) / RFU NPB (11741838_a_at) / Fold change /veh NPB (11741838_a_at) / RFU TMPRSS6 (11731388_a_at) / Fold change /veh TMPRSS6 (11731388_a_at) / RFU KRTAP10-2 (11738614_at) / Fold change /veh KRTAP10-2 (11738614_at) / RFU ARHGAP8 /// PRR5-ARHGAP8 (11727945_x_at) / Fold change /veh ARHGAP8 /// PRR5-ARHGAP8 (11727945_x_at) / RFU KRTAP5-7 /// NADSYN1 (11734609_at) / Fold change /veh KRTAP5-7 /// NADSYN1 (11734609_at) / RFU RASL12 (11751679_a_at) / Fold change /veh RASL12 (11751679_a_at) / RFU CDKN2B (11736163_a_at) / Fold change /veh CDKN2B (11736163_a_at) / RFU PRF1 (11729649_at) / Fold change /veh PRF1 (11729649_at) / RFU, ZNF638 /// ZNF638-IT1 / Fold change vs veh, ZNF638 /// ZNF638-IT1 / RFU, PANK3 / Fold change vs veh, PANK3 / RFU, SH3YL1 / Fold change vs veh, SH3YL1 / RFU, ZEB2 / Fold change vs veh, ZEB2 / RFU, NRIP1 / Fold change vs veh, NRIP1 / RFU, PTTG1IP / Fold change vs veh, PTTG1IP / RFU, CAPN2 / Fold change vs veh, CAPN2 / RFU, MED14 / Fold change vs veh, MED14 / RFU, SNORA58 / Fold change vs veh, SNORA58 / RFU, C1orf63 / Fold change vs veh, C1orf63 / RFU, LRRFIP1 / Fold change vs veh, LRRFIP1 / RFU, NDUFAF7 / Fold change vs veh, NDUFAF7 / RFU, SLC12A2 / Fold change vs veh, SLC12A2 / RFU, IBTK / Fold change vs veh, IBTK / RFU, ESF1 / Fold change vs veh, ESF1 / Fold change vs veh, TMEM50B / RFU, TAOK1 / Fold change vs veh, TAOK1 / RFU, ACBD3 / Fold change vs veh, ACBD3 / RFU, TMA16 / Fold change vs veh, TMA16 / RFU, RWDD3 / Fold change vs veh, RWDD3 / RFU, BCAT1 / Fold change vs veh, BCAT1 / RFU, EDEM3 / Fold change vs veh, EDEM3 / RFU, TMEM33 / Fold change vs veh, TMEM33 / RFU, WDR75 / Fold change vs veh, WDR75 / RFU, AHCTF1 / Fold change vs veh, AHCTF1 / RFU, TFRC / Fold change vs veh, TFRC / RFU, ZDHHC17 / Fold change vs veh, ZDHHC17 / RFU, NOM1 / Fold change vs veh, NOM1 / RFU, ARL8B / Fold change vs veh, ARL8B / RFU, ZBTB11 / Fold change vs veh, ZBTB11 / RFU, TAMM41 / Fold change vs veh, TAMM41 / RFU, KIAA1704 /// LOC100996395 / Fold change vs veh, KIAA1704 /// LOC100996395 / RFU, ING1 / Fold change vs veh, ING1 / RFU, TRMT61B / Fold change vs veh, TRMT61B / RFU, FUBP3 / Fold change vs veh, FUBP3 / RFU, TP53 / Fold change vs veh, TP53 / RFU, TNKS2 / Fold change vs veh, TNKS2 / RFU, ZFP14 / Fold change vs veh, ZFP14 / RFU, ACTR2 / Fold change vs veh, ACTR2 / RFU, PPP3R1 / Fold change vs veh, PPP3R1 / RFU, PIK3R1 / Fold change vs veh, PIK3R1 / RFU, HNRNPA1 / Fold change vs veh, HNRNPA1 / RFU, RNF170 / Fold change vs veh, RNF170 / RFU, ZNF28 / Fold change vs veh, ZNF28 / RFU, RNGTT / Fold change vs veh, RNGTT / RFU, OGT / Fold change vs veh, OGT / RFU, BRD1 / Fold change vs veh, BRD1 / RFU, MARS / Fold change vs veh, MARS / RFU, ZNF655 / Fold change vs veh, ZNF655 / RFU, FAHD1 / Fold change vs veh, FAHD1 / RFU, BDP1 / Fold change vs veh, BDP1 / RFU, LRRCC1 / Fold change vs veh, LRRCC1 / RFU, ARID1A / Fold change vs veh, ARID1A / RFU, ZNF146 / Fold change vs veh, ZNF146 / RFU, ZNF330 / Fold change vs veh, ZNF330 / RFU, GPN3 / Fold change vs veh, GPN3 / RFU, C9orf123 / Fold change vs veh, C9orf123 / RFU, N4BP2L2 / Fold change vs veh, N4BP2L2 / RFU, ARFIP1 / Fold change vs veh, ARFIP1 / RFU, FAM179B / Fold change vs veh, FAM179B / RFU, BCL10 / Fold change vs veh, BCL10 / RFU, UHRF1BP1L / Fold change vs veh, UHRF1BP1L / RFU, BET1 / Fold change vs veh, BET1 / RFU, CNOT2 / Fold change vs veh, CNOT2 / RFU, ZNF268 / Fold change vs veh, ZNF268 / Fold change vs veh, ZNF507 / RFU, DGCR2 / Fold change vs veh, DGCR2 / RFU, WDSUB1 / Fold change vs veh, WDSUB1 / Fold change vs veh, HSP90B1 /// MIR3652 / RFU, ADSS / Fold change vs veh, ADSS / RFU, GK / Fold change vs veh, GK / RFU, ZNF148 / Fold change vs veh, ZNF148 / RFU, TAF9 / Fold change vs veh, TAF9 / RFU, SLC1A5 / Fold change vs veh, SLC1A5 / RFU, SLMO2 / Fold change vs veh, SLMO2 / RFU, ABCC4 / Fold change vs veh, ABCC4 / RFU, LOC101060439 /// RAP1B / Fold change vs veh, LOC101060439 /// RAP1B / RFU, RFX7 / Fold change vs veh, RFX7 / RFU, GTPBP10 / Fold change vs veh, GTPBP10 / RFU, CNEP1R1 / Fold change vs veh, CNEP1R1 / RFU, BIVM-ERCC5 /// ERCC5 / Fold change vs veh, BIVM-ERCC5 /// ERCC5 / RFU, ILF3 / Fold change vs veh, ILF3 / RFU 11762660_at / Fold change /veh 11762660_at / RFU VCAN (11757783_s_at) / Fold change /veh VCAN (11757783_s_at) / RFU DDX43 (11728927_at) / Fold change /veh DDX43 (11728927_at) / RFU KRT8 (11758188_x_at) / Fold change /veh KRT8 (11758188_x_at) / RFU NKD1 (11759106_at) / Fold change /veh NKD1 (11759106_at) / RFU SRD5A1 (11742802_a_at) / Fold change /veh SRD5A1 (11742802_a_at) / RFU TPSAB1 /// TPSB2 (11721975_s_at) / Fold change /veh TPSAB1 /// TPSB2 (11721975_s_at) / RFU GSTM3 (11746129_a_at) / Fold change /veh GSTM3 (11746129_a_at) / RFU IL23R (11737362_x_at) / Fold change /veh IL23R (11737362_x_at) / RFU TMEM51 (11727254_a_at) / Fold change /veh TMEM51 (11727254_a_at) / RFU PIWIL2 (11732686_x_at) / Fold change /veh PIWIL2 (11732686_x_at) / RFU ORM1 (11744905_x_at) / Fold change /veh ORM1 (11744905_x_at) / RFU CCDC152 (11743942_at) / Fold change /veh CCDC152 (11743942_at) / RFU ECM1 (11717891_a_at) / Fold change /veh ECM1 (11717891_a_at) / RFU IL23R (11748794_a_at) / Fold change /veh IL23R (11748794_a_at) / RFU TNFAIP8L3 (11732012_x_at) / Fold change /veh TNFAIP8L3 (11732012_x_at) / RFU MBOAT4 (11741988_at) / Fold change /veh MBOAT4 (11741988_at) / RFU 11764193_at / Fold change /veh 11764193_at / RFU TMEM53 (11763286_at) / Fold change /veh TMEM53 (11763286_at) / RFU MAGEB2 (11727129_at) / Fold change /veh MAGEB2 (11727129_at) / RFU TMEM200A (11744735_a_at) / Fold change /veh TMEM200A (11744735_a_at) / RFU CCDC152 (11751479_a_at) / Fold change /veh CCDC152 (11751479_a_at) / RFU FAM211A (11726209_a_at) / Fold change /veh FAM211A (11726209_a_at) / RFU RGS16 (11746705_a_at) / Fold change /veh RGS16 (11746705_a_at) / RFU VCAN (11755009_s_at) / Fold change /veh VCAN (11755009_s_at) / RFU RHOB (11743442_s_at) / Fold change /veh RHOB (11743442_s_at) / RFU RGS16 (11720943_a_at) / Fold change /veh RGS16 (11720943_a_at) / RFU RGS16 (11720944_at) / Fold change /veh RGS16 (11720944_at) / RFU, VPS4B / Fold change vs veh, VPS4B / RFU, CREB1 / Fold change vs veh, CREB1 / RFU, DNAJC13 / Fold change vs veh, DNAJC13 / RFU, GNAQ / Fold change vs veh, GNAQ / RFU, CDK5R1 / Fold change vs veh, CDK5R1 / RFU, ZRANB3 / Fold change vs veh, ZRANB3 / RFU, CUL4A / Fold change vs veh, CUL4A / RFU, CCNY / Fold change vs veh, CCNY / RFU, UFL1 / Fold change vs veh, UFL1 / RFU, COG3 / Fold change vs veh, COG3 / RFU, DIAPH2 / Fold change vs veh, DIAPH2 / RFU, SKA2 / Fold change vs veh, SKA2 / RFU, AFF3 / Fold change vs veh, AFF3 / RFU, LMF1 / Fold change vs veh, LMF1 / RFU, IPO11 / Fold change vs veh, IPO11 / RFU, DFFB / Fold change vs veh, DFFB / RFU, FOXP1 / Fold change vs veh, FOXP1 / RFU, CARD8 / Fold change vs veh, CARD8 / RFU, STRN3 / Fold change vs veh, STRN3 / RFU, ADK / Fold change vs veh, ADK / RFU, RASSF2 / Fold change vs veh, RASSF2 / RFU, WIPF1 / Fold change vs veh, WIPF1 / RFU, LARP1B / Fold change vs veh, LARP1B / RFU, RASA1 / Fold change vs veh, RASA1 / RFU, RB1 / Fold change vs veh, RB1 / RFU, PPFIA1 / Fold change vs veh, PPFIA1 / RFU, MAT2A / Fold change vs veh, MAT2A / RFU, CCT5 / Fold change vs veh, CCT5 / RFU, WDR92 / Fold change vs veh, WDR92 / RFU, CUX1 / Fold change vs veh, CUX1 / RFU, TTC7A / Fold change vs veh, TTC7A / RFU, TMEM135 / Fold change vs veh, TMEM135 / RFU, DEPTOR / Fold change vs veh, DEPTOR / RFU, CPM / Fold change vs veh, CPM / RFU, DNAJB6 / Fold change vs veh, DNAJB6 / RFU, CACNA2D3 / Fold change vs veh, CACNA2D3 / RFU, DTX4 / Fold change vs veh, DTX4 / RFU, TFCP2 / Fold change vs veh, TFCP2 / RFU, GMCL1 /// GMCL1P1 / Fold change vs veh, GMCL1 /// GMCL1P1 / RFU, AEBP2 / Fold change vs veh, AEBP2 / RFU, SNHG1 /// SNORD22 /// SNORD25 /// SNORD26 /// SNORD27 /// SNORD28 /// SNORD29 /// SNORD31 / Fold change vs veh, SNHG1 /// SNORD22 /// SNORD25 /// SNORD26 /// SNORD27 /// SNORD28 /// SNORD29 /// SNORD31 / Fold change (Aza/veh), C12orf56 (ProbeSet 11735607_a_at) / Fold change (ACY-1035/veh), C12orf56 (ProbeSet 11735607_a_at) / Fold change (Aza/veh), FGFR1OP (ProbeSet 11751329_s_at) / Fold change (ACY-1035/veh), FGFR1OP (ProbeSet 11751329_s_at) / Fold change (Aza/veh), VPS36 (ProbeSet 11739960_a_at) / Fold change (ACY-1035/veh), VPS36 (ProbeSet 11739960_a_at) / RFU SYPL1 (11715823_x_at) / Fold change /veh SYPL1 (11715823_x_at) / RFU IGFBP7 (11715501_s_at) / Fold change /veh IGFBP7 (11715501_s_at) / RFU REEP3 (11722064_at) / Fold change /veh REEP3 (11722064_at) / RFU IGLL1 (11728026_x_at) / Fold change /veh IGLL1 (11728026_x_at): dose or concentration left out as unconfirmed", "details": "ProbeSet 11738335_x_at; LIST B", "data": [{"smiles": "Nc1ncn([C@@H]2O[C@H](CO)[C@@H](O)[C@H]2O)c(=O)n1", "note": "[azacitidine]", "values": [{"measurement": "RFU, TP53", "value": 77.85, "unit": "RFU"}]}]}
